Reference: patent US12065445B2, “CDK2 inhibitors and methods of using the same” (Cedilla Therapeutics, Inc., priority 2021, dated 2024)

Test system: Kuramochi cells
Assay: BrdU Cell Proliferation Assay
Assay type: cell-based
Conditions: read-out: BrdU - KURAMOCHI.1: IC50
Outline: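 Signal is 450 nm absorbance from a peroxidase anti-BrdU ELISA after a 1-hour BrdU label, background-subtracted and normalized to DMSO-treated wells. Kuramochi cells (2,000 per well) had been exposed to compound for 4 days. Dosing used a 10-point dose response in 3-fold steps.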

CNC(=O)[C@@H](NC(=O)[C@@H]1CN(C(=O)c2cnn(Cc3ccccc3)c2)CC12CN(C(=O)C1(C(F)(F)F)CC1)C2)[C@@H](C)OCc1ccccc1 [I-108A]
IC50: > 10 µM

C[C@@H]1C[C@H](C)CN(C(=O)[C@@H](NC(=O)C2CN(C(=O)c3cn[nH]c3)CC23CN(C(=O)[C@H]2CC2(C)C)C3)[C@@H](C)OCc2ccccc2)C1 (some centres unmarked) [I-124]
IC50: > 10 µM

CNC(=O)[C@@H](NC(=O)[C@H]1CN(C(=O)c2cnn(Cc3ccccc3)c2)CC12CN(C(=O)C1(C3CC3)CC1)C2)[C@@H](C)OCc1ccccc1 [I-114B]
IC50: > 10 µM

CNC(=O)[C@@H](NC(=O)C1CN(C(=O)c2cnn(Cc3ccccc3)c2)CC12CN(C(=O)C1CC1(C)C)C2)[C@@H](C)OCC1CCCCC1 (mixture of isomers) [I-12]
IC50: 0.5 to 5 µM

CC1(C)C[C@@H]1C(=O)N1CC2(CN(C(=O)c3cnn(Cc4ccccc4)c3)C[C@@H]2C(=O)N[C@@H]2CC[C@@H]2O)C1 [I-201A]
IC50: > 10 µM

CNC(=O)[C@@H](NC(=O)[C@@H]1CN(C(=O)c2cnn(Cc3ccccc3)c2)CC12CN(C(=O)[C@H]1CC1(C)C)C2)[C@@H](C)OCC1(C(F)(F)F)CC1 [I-205A]
IC50: > 10 µM

CC1(C)C[C@@H]1C(=O)N1CC2(CN(C(=O)c3cnn(Cc4ccccc4)c3)C[C@H]2C(=O)N[C@H]2CCc3cc(Cl)ccc32)C1 [I-133A]
IC50: > 10 µM

C[C@@H](OCC1CCC(F)(F)CC1)[C@H](NC(=O)[C@H]1CN(C(=O)c2cn[nH]c2)CC12CN(C(=O)[C@H]1CC1(C)C)C2)C(=O)N1CCC(F)(F)CC1 [I-228B]
IC50: > 10 µM

C[C@@H](OCC1CCCCC1)[C@H](NC(=O)[C@@H]1CN(C(=O)c2cnn(Cc3ccccc3)c2)CC12CN(C(=O)[C@H]1CC1(C)C)C2)C(=O)N1CCC[C@H]1CN [I-220]
IC50: > 10 µM

CNC(=O)[C@H](CCCC1CCCCC1)NC(=O)[C@H]1CN(C(=O)c2cnn(Cc3ccccc3)c2)CC12CN(C(=O)[C@H]1CC1(C)C)C2 [I-155B]
IC50: > 10 µM

CNC(=O)[C@@H](NC(=O)[C@@H]1CN(C(=O)c2cnn(Cc3ccccc3)c2)CC12CN(C(=O)[C@H]1CC1(C)C)C2)[C@@H](C)OCc1ccccc1O [I-251]
IC50: > 10 µM

CNC(=O)[C@@H](NC(=O)[C@H]1CN(C(=O)c2cnn(Cc3ccccc3)c2)CC12CN(C(=O)C1C(C)(C)C1(C)C)C2)[C@@H](C)OCc1ccccc1 [I-89B]
IC50: > 10 µM

CNC(=O)[C@@H](NC(=O)[C@@H]1CN(C(=O)c2cnn(Cc3ccccc3)c2)CC12CN(C(=O)[C@H]1CC1(C)C)C2)[C@@H](C)OCc1cccnc1 [I-247]
IC50: > 10 µM

CC1(C)C[C@@H]1C(=O)N1CC2(CN(C(=O)c3cnn(Cc4ccccc4)c3)C[C@H]2C(=O)N2CCC[C@@H](OCC3CCCCC3)C2)C1 [I-254]
IC50: > 10 µM

CNC(=O)[C@@H](NC(=O)[C@H]1CN(C(=O)c2cnn(Cc3ccccc3)c2)CC12CN(C(=O)[C@H]1CC1(C)C)C2)[C@@H](C)OCC1CCCCCC1 [I-166B]
IC50: 0.5 to 5 µM

C[C@@H]1C[C@H](C)CN(C(=O)[C@@H](NC(=O)C2CN(C(=O)c3cncs3)CC23CN(C(=O)[C@H]2CC2(C)C)C3)[C@@H](C)OCC2CCCCC2)C1 (some centres unmarked) [I-172]
IC50: ≤ 0.5 µM

CNC(=O)[C@@H](NC(=O)[C@@H]1CN(Cc2cn[nH]c2)CC12CN(C(=O)[C@H]1CC1(C)C)C2)[C@@H](C)OCc1ccccc1 [I-50A]
IC50: > 10 µM

CNC(=O)[C@@H](NC(=O)[C@H]1CN(C(=O)c2cccnc2)CC12CN(C(=O)[C@H]1CC1(C)C)C2)[C@@H](C)OCc1ccccc1 [I-42B]
IC50: > 10 µM

CNC(=O)[C@@H](NC(=O)[C@H]1CN(C(=O)c2cnn(Cc3ccccc3)c2)CC12CN(C(=O)C(C)(C)F)C2)[C@@H](C)OCc1ccccc1 [I-90B]
IC50: > 10 µM

CNC(=O)[C@@H](NC(=O)[C@@H]1CN(Cc2cnco2)CC12CN(C(=O)[C@H]1CC1(C)C)C2)[C@@H](C)OCc1ccccc1 [I-78A, (S)—N-((2S,3R)-3-(benzyloxy)-1-(methylamino)-1-oxobutan-2-yl)-2-((S)-2,2-dimethylcyclopropane-1-carbonyl)-6-(oxazol-5-ylmethyl)-2,6-diazaspiro[3.4]octane-8-carboxamide]
IC50: > 10 µM

CNC(=O)[C@@H](NC(=O)[C@@H]1CN(C(=O)c2cnn(CC3CC3)c2)CC12CN(C(=O)CC1CC1)C2)[C@@H](C)OCc1ccccc1 [I-53A]
IC50: > 10 µM

CNC(=O)[C@@H](NC(=O)[C@@H]1CN(C(=O)c2scnc2C2CC2)CC12CN(C(=O)[C@H]1CC1(C)C)C2)[C@@H](C)OCC1CCCCC1 [I-185A]
IC50: > 10 µM

CNC(=O)[C@@H](NC(=O)[C@H]1CN(C(=O)c2scnc2C2CC2)CC12CN(C(=O)[C@H]1CC1(C)C)C2)[C@@H](C)OCC1CCCCC1 [I-185B]
IC50: > 10 µM

CNC(=O)[C@@H](NC(=O)[C@@H]1CN(C(=O)c2cnn(Cc3ccccc3)c2)CC12CN(C(=O)C1(CC3CC3)CC1)C2)[C@@H](C)OCc1ccccc1 [I-116A]
IC50: > 10 µM

Cc1n[nH]c(C(=O)N2C[C@@H](C(=O)N[C@H](C(=O)N3CCCCC3)[C@@H](C)OCC3CCCCC3)C3(C2)CN(C(=O)[C@H]2CC2(C)C)C3)n1 [I-241]
IC50: > 10 µM

CNC(=O)[C@@H](NC(=O)[C@H]1CN(C(=O)c2cnn(CC3CCNCC3)c2)CC12CN(C(=O)[C@H]1CC1(C)C)C2)[C@@H](C)OCc1ccccc1 [I-19B]
IC50: > 10 µM

CNC(=O)[C@@H](NC(=O)[C@H]1CN(C(=O)c2cn[nH]c2)CC12CN(C(=O)[C@H]1CC1(C)C)C2)[C@@H](C)OCC1CCCCC1 [I-66B]
IC50: > 10 µM

CNC(=O)[C@@H](NC(=O)[C@@H]1CN(C(=O)c2cnn(Cc3ccccc3)c2)CC12CN(C(=O)C1(c3ccc(C(C)(C)C)cc3)CC1)C2)[C@@H](C)OCc1ccccc1 [I-80A]
IC50: > 10 µM

CNC(=O)[C@@H](NC(=O)[C@H]1CN(Cc2cnc[nH]2)CC12CN(C(=O)[C@H]1CC1(C)C)C2)[C@@H](C)OCc1ccccc1 [I-77B]
IC50: > 10 µM

CNC(=O)[C@@H](NC(=O)[C@H]1CN(C(=O)c2cnn(CC3CCN(C(C)=O)CC3)c2)CC12CN(C(=O)[C@H]1CC1(C)C)C2)[C@@H](C)OCc1ccccc1 [I-17B]
IC50: > 10 µM

CNC(=O)[C@@H](NC(=O)[C@H]1CN(C(=O)c2cnn(Cc3ccccc3)c2)CC12CN(C(=O)C1CC1(C)C)C2)[C@@H](C)O (some centres unmarked) [I-88B]
IC50: > 10 µM

CNC(=O)[C@H](CCCc1ccccc1)NC(=O)[C@@H]1CN(C(=O)c2cnn(Cc3ccccc3)c2)CC12CN(C(=O)[C@H]1CC1(C)C)C2 [I-101A]
IC50: > 10 µM

CC1(C)C[C@@H]1C(=O)N1CC2(CN(C(=O)c3cnn(Cc4ccccc4)c3)C[C@@H]2C(=O)NC2CCCN(C(=O)c3ccccc3)C2)C1 (some centres unmarked) [I-59B]
IC50: > 10 µM

CNC(=O)[C@@H](NC(=O)[C@H]1CN(C(=O)Nc2cnn(Cc3ccccc3)c2)CC12CN(C(=O)[C@H]1CC1(C)C)C2)[C@@H](C)OCc1ccccc1 [I-48B]
IC50: > 10 µM

CC1(C)C[C@@H]1C(=O)N1CC2(CN(C(=O)c3cnn(Cc4ccccc4)c3)C[C@@H]2C(=O)Nc2cccc(-c3ccccc3)c2)C1 [I-63B]
IC50: > 10 µM

CNC(=O)[C@@H](NC(=O)[C@H]1CN(C(=O)c2cnc(COC)s2)CC12CN(C(=O)[C@H]1CC1(C)C)C2)[C@@H](C)OCC1CCCCC1 [I-145B]
IC50: > 10 µM

CNC(=O)[C@@H](NC(=O)[C@H]1CN(S(=O)(=O)c2cnn(Cc3ccccc3)c2)CC12CN(C(=O)[C@H]1CC1(C)C)C2)[C@@H](C)OCc1ccccc1 [I-79B]
IC50: > 10 µM

COC[C@H]1CCCN(C(=O)[C@@H](NC(=O)[C@@H]2CN(C(=O)c3cncs3)CC23CN(S(=O)(=O)C(C)(C)C)C3)[C@@H](C)OCC2CCCCC2)C1 [I-447, (S)-2-(tert-butylsulfonyl)-N-((2S,3R)-3-(cyclohexylmethoxy)-1-((S)-3-(methoxymethyl)piperidin-1-yl)-1-oxobutan-2-yl)-6-(thiazole-5-carbonyl)-2,6-diazaspiro[3.4]octane-8-carboxamide]
IC50: > 10 µM

C[C@@H](OCC1CCCCC1)[C@H](NC(=O)[C@H]1CN(C(=O)c2cn[nH]c2)CC12CN(C(=O)[C@H]1CC1(C)C)C2)C(=O)N1CCC(F)(F)CC1 [I-154B]
IC50: > 10 µM

CNC(=O)[C@@H](NC(=O)[C@@H]1CN(C(=O)Nc2cnn(Cc3ccccc3)c2)CC12CN(C(=O)[C@H]1CC1(C)C)C2)[C@@H](C)OCc1ccccc1 [I-48A, (S)—N6-(1-benzyl-1H-pyrazol-4-yl)-N8-((2S,3R)-3-(benzyloxy)-1-(methylamino)-1-oxobutan-2-yl)-2-((S)-2,2-dimethylcyclopropane-1-carbonyl)-2,6-diazaspiro[3.4]octane-6,8-dicarboxamide]
IC50: > 10 µM

CNC(=O)[C@@H](NC(=O)[C@@H]1CN(C(=O)c2cnn(Cc3ccccc3)c2)CC12CN(C(=O)Cc1ccccc1)C2)[C@@H](C)OCc1ccccc1 [I-25A, (S)-6-(1-benzyl-1H-pyrazole-4-carbonyl)-N-((2S,3R)-3-(benzyloxy)-1-(methylamino)-1-oxobutan-2-yl)-2-(2-phenylacetyl)-2,6-diazaspiro[3.4]octane-8-carboxamide]
IC50: > 10 µM

CNC(=O)[C@@H](NC(=O)[C@@H]1CN(Cc2ccccn2)CC12CN(C(=O)[C@H]1CC1(C)C)C2)[C@@H](C)OCc1ccccc1 [I-40A]
IC50: > 10 µM

CNC(=O)[C@@H](NC(=O)[C@@H]1CN(C(=O)c2cnn(Cc3ccccc3)c2)CC12CN(C(=O)[C@H]1CC1(C)C)C2)[C@@H](C)OCC1CCC(F)(F)CC1 [I-202]
IC50: 0.5 to 5 µM

CNC(=O)[C@@H](NC(=O)[C@H]1CN(C(=O)c2cnn(Cc3ccccc3)c2)CC12CN(C(=O)CC(C)C)C2)[C@@H](C)OCc1ccccc1 [I-69B]
IC50: > 10 µM

CNC(=O)[C@@H](NC(=O)[C@H]1CN(Cc2cnn(Cc3ccccc3)c2)CC12CN(C(=O)[C@H]1CC1(C)C)C2)[C@@H](C)OCc1ccccc1 [I-16B]
IC50: > 10 µM

C[C@@H](OCc1ccccc1)[C@H](NC(=O)C1CN(C(=O)c2cnn(Cc3ccccc3)c2)CC12CN(C(=O)[C@H]1CC1(C)C)C2)C(=O)O (stereo partly drawn) [I-9, (2S,3R)-2-(6-(1-benzyl-1H-pyrazole-4-carbonyl)-2-((S)-2,2-dimethylcyclopropanecarbonyl)-2,6-diazaspiro[3.4]octane-8-carboxamido)-3-(benzyloxy)butanoic acid]
IC50: > 10 µM

CNC(=O)[C@@H](NC(=O)[C@H]1CN(C(=O)c2cnn(C)c2)CC12CN(C(=O)[C@H]1CC1(C)C)C2)[C@@H](C)OCc1ccccc1 [I-33B]
IC50: > 10 µM
